Results taken from patent US8865771B2, “Amides useful as inhibitors of voltage-gated sodium channels” (Vertex Pharmaceuticals Incorporated, priority 2007, dated 2014).
Like-named read-outs stand apart in the source and are kept apart here.

Legend:
[1] = biological target: NaV 1.7 channel (Homo sapiens, UniProt Q15858); test: NaV inhibition, optical membrane potential assay (analogous mode); assay type: cell-based; conditions: activity against NaV 1.7 channel
Protocol: (§1) Compounds of the invention are useful as antagonists of voltage-gated sodium ion channels. Antagonist properties of test compounds were assessed as follows. Cells expressing the NaV of interest were placed into microtiter plates. After an incubation period, the cells were stained with fluorescent dyes sensitive to the transmembrane potential. The test compounds were added to the microtiter plate. The cells were stimulated with either a chemical or electrical means to evoke a NaV dependent membrane potential change from unblocked channels, which was detected and measured with trans-membrane potential-sensitive dyes. Antagonists were detected as a decreased membrane potential response to the stimulus. The optical membrane potential assay utilized voltage-sensitive FRET sensors described by Gonzalez and Tsien (See Gonzalez, J. E. and R. Y. Tsien (1995) “Voltage sensing by fluorescence resonance energy transfer in single cells” Biophys J 69(4): 1272-80, and Gonzalez, J. E. and R. Y. Tsien (1997) “Improved indicators of cell membrane potential that use fluorescence resonance energy transfer” Chem Biol 4(4): 269-77) in combination with instrumentation for measuring fluorescence changes such as the Voltage/Ion Probe Reader (VIPR®) (See Gonzalez, J. E., K. Oades, et al. (1999) “Cell-based assays and instrumentation for screening ion-channel targets” Drug Discov Today 4(9): 431-439).
(§2) C) VIPR® Optical Membrane Potential Assay Method with Electrical Stimulation
(§3) The following is an example of how NaV1.3 inhibition activity is measured using the optical membrane potential method#2. Other subtypes are performed in an analogous mode in a cell line expressing the NaV of interest.
(§4) The electrical stimulation instrument and methods of use are described in ION Channel Assay Methods PCT/US01/21652, herein incorporated by reference. The instrument comprises a microtiter plate handler, an optical system for exciting the coumarin dye while simultaneously recording the coumarin and oxonol emissions, a waveform generator, a current- or voltage-controlled amplifier, and a device for inserting electrodes in well. Under integrated computer control, this instrument passes user-programmed electrical stimulus protocols to cells within the wells of the microtiter plate.
(§5) Assay Protocol • 1. Insert or use electrodes into each well to be assayed. • 2. Use the current-controlled amplifier to deliver stimulation wave pulses for 3 s. Two seconds of pre-stimulus recording are performed to obtain the un-stimulated intensities. Five seconds of post-stimulation recording are performed to examine the relaxation to the resting state.
(§6) Data are analyzed and reported as normalized ratios of background-subtracted emission intensities measured in the 460 nm and 580 nm channels. Background intensities are then subtracted from each assay channel. Background intensities are obtained by measuring the emission intensities during the same time periods from identically treated assay wells in which there are no cells. The response as a function of time is then reported as the ratios obtained using the following formula: […]
(§7) The data is further reduced by calculating the initial (Ri) and final (Rf) ratios. These are the average ratio values during part or all of the pre-stimulation period, and during sample points during the stimulation period. The response to the stimulus ρ=Rf/Ri is then calculated.
(§8) Control responses are obtained by performing assays in the presence of a compound with the desired properties (positive control) and in the absence of pharmacological agents (negative control). Responses to the negative (N) and positive (P) controls are calculated as above. The activity A of the assay well relative to positive and negative controls is defined as: […]

[2] = biological target: T1, NaV1.8 (Homo sapiens, UniProt Q9Y5Y9); test: as above; assay type: cell-based; conditions: activity against NaV 1.8 channel
Protocol: as §1, §2, §3, §4, §5, §6, §7, §8

[3] = biological target: T2, NaV1.3 (Homo sapiens, UniProt Q9NY46); test: NaV inhibition, VIPR optical membrane potential assay with electrical stimulation; assay type: cell-based; design: expressed in transfected cells; host or cells: HEK293; conditions: activity against NaV 1.3 channel
Protocol: as §1, §2, §3
Target sequence in this assay (Q9NY46 whole entry): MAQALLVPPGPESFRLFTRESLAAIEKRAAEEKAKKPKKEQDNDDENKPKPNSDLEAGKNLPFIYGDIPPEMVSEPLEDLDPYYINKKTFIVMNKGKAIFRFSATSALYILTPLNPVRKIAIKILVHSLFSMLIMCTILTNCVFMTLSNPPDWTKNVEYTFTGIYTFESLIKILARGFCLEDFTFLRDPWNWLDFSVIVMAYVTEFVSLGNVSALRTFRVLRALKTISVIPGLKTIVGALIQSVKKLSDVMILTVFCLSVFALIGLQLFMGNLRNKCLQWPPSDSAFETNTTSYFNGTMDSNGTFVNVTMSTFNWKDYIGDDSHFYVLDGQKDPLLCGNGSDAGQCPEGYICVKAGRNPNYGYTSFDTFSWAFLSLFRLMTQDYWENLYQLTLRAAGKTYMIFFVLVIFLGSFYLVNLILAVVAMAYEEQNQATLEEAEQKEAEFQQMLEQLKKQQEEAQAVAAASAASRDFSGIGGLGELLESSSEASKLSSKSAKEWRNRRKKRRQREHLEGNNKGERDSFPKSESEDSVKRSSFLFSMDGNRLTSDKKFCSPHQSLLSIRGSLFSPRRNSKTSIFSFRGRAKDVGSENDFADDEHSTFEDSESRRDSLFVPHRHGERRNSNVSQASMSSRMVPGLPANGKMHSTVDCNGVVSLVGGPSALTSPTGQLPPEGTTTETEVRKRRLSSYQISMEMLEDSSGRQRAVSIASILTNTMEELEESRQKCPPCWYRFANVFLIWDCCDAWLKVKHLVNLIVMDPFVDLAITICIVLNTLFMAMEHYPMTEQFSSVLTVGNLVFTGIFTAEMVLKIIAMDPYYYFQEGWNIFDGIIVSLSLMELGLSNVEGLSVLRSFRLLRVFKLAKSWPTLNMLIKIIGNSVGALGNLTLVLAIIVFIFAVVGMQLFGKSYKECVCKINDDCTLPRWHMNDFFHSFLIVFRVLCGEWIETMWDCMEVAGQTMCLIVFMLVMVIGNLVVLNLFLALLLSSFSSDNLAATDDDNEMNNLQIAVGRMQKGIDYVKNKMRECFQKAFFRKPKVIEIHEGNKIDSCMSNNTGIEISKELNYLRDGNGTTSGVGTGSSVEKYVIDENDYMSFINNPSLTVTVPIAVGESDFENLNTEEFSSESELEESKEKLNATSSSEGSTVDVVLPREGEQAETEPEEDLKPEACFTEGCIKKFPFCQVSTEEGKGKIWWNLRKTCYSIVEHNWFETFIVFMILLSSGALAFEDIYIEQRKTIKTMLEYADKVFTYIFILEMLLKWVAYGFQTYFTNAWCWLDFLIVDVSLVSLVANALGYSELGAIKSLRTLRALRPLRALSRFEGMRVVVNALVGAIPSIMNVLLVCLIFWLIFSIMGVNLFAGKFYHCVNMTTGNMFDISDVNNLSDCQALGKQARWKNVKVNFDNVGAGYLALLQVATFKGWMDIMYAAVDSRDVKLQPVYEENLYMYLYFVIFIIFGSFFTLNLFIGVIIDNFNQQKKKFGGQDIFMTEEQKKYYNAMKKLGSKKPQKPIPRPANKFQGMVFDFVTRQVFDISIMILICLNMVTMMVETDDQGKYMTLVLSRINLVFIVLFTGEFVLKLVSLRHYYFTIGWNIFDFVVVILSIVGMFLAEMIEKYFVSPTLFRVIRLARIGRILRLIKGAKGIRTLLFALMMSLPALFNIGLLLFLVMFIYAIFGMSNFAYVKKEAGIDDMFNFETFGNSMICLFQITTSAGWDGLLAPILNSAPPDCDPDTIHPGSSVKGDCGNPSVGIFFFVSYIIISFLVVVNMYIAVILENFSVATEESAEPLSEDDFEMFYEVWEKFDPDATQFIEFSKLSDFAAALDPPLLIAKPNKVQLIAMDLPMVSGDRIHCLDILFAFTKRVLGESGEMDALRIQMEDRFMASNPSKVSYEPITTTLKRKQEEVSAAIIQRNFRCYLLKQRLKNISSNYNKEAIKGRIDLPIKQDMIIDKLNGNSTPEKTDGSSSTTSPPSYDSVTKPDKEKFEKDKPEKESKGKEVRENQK
HEK293 cells stably expressing NaV 1.3 are plated into 96-well microtiter plates. After an appropriate incubation period, the cells are stained with the voltage sensitive dyes CC2-DMPE/DiSBAC2(3) as follows.
10 mM CC2-DMPE is vortexed with an equivalent volume of 10% pluronic, followed by vortexing in required amount of HBSS containing 10 mM HEPES. Each cell plate will require 5 mL of 2×CC2-DMPE. 50 μL of 2×CC2-DMPE is to wells containing washed cells, resulting in a 10 μM final staining concentration. The cells are stained for 30 minutes in the dark at RT.
The 2×DiSBAC2(3) solution can be used to solvate compound plates. Note that compound plates are made at 2× drug concentration. Wash stained plate again, leaving residual volume of 50 μL. Add 50 uL/well of the 2×DiSBAC2(3) w/ABSC1. Stain for 30 minutes in the dark at RT.
as §4, §5, §6

[4] = biological target: T2, NaV1.3; conditions: read-out: TTX IC50; cited from earlier work
Target sequence in this assay (Q9NY46 whole entry, looked up): as the sequence (Q9NY46 whole entry) above

[5] = biological target: NaV1.6 (Homo sapiens, UniProt Q9UQD0); conditions: read-out: TTX IC50; cited from earlier work
[6] = biological target: T1, NaV1.8; conditions: read-out: TTX IC50; cited from earlier work
[7] = biological target: NaV1.9 (Homo sapiens, UniProt Q9UI33); conditions: read-out: TTX IC50; cited from earlier work

Chain of NaV 1.7 channel (Q15858 whole entry): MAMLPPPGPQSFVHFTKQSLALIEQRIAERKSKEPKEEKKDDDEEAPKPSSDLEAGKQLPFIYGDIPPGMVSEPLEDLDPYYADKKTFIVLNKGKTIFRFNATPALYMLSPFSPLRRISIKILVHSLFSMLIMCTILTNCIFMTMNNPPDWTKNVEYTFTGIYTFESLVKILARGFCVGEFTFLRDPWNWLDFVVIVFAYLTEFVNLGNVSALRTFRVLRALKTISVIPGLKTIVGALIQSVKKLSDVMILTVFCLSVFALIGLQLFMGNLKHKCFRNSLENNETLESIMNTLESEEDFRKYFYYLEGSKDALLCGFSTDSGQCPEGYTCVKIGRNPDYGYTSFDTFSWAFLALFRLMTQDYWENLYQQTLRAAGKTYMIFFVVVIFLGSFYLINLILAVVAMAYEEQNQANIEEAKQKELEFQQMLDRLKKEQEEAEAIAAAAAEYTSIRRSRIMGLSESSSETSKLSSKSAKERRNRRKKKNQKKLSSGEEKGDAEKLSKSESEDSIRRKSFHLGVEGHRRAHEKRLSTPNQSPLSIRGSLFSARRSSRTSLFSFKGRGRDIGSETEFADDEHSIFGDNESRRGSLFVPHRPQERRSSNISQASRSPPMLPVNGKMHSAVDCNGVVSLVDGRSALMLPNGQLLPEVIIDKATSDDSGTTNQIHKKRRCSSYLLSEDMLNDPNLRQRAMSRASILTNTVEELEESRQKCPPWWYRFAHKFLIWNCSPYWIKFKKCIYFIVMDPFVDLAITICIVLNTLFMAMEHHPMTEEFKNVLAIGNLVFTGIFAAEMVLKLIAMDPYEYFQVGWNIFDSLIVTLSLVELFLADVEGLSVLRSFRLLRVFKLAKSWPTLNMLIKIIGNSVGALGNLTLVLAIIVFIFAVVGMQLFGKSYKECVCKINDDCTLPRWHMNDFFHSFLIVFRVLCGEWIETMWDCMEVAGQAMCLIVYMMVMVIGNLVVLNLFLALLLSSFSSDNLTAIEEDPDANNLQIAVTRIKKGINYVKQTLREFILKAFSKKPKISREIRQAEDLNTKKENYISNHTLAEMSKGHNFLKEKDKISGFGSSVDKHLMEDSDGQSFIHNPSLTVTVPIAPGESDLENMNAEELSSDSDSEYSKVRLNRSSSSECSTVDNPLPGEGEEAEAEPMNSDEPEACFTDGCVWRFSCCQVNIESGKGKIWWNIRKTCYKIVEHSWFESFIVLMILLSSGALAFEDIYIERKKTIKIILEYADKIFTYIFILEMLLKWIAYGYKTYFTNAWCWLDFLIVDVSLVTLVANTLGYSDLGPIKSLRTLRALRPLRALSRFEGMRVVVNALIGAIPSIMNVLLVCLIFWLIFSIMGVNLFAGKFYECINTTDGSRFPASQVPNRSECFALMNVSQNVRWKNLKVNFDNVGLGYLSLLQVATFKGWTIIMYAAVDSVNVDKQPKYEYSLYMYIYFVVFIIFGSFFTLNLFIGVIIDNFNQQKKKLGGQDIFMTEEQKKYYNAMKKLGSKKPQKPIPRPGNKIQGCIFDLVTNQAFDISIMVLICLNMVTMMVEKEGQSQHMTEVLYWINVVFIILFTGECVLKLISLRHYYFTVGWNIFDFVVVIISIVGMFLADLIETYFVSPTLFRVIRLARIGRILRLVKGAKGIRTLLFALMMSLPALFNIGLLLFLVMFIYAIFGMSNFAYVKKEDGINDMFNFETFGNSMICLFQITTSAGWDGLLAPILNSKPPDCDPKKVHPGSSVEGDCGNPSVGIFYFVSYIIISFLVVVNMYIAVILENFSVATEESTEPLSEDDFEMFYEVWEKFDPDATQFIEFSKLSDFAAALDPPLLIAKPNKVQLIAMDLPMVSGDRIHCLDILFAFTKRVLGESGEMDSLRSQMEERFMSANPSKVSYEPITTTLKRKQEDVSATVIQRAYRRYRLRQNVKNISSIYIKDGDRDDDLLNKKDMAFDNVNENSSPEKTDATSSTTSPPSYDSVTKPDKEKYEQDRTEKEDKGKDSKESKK

SMILES	IC50 [1] [µM]	IC50 [2] [µM]	IC50 [3] [µM]	IC50 [4] [µM]	IC50 [5] [µM]	IC50 [6] [µM]	IC50 [7] [µM]
Cc1ncccc1Oc1cc(C(C)(C)C)ccc1C(=O)Nc1cncc(S(N)(=O)=O)c1 [Compound 1]	> 20	< 2	> 20	–	–	–	–
CC(C)(C)c1ccc(C(=O)Nc2cncc(S(N)(=O)=O)c2)c(Oc2ccc(F)cc2Cl)c1 [Compound 2]	2 to 10	< 2	2 to 10	–	–	–	–
CC(C)(C)c1ccc(C(=O)Nc2cncc(S(N)(=O)=O)c2)c(Oc2ccc(C(F)(F)F)nc2)c1 [Compound 3]	2 to 10	< 2	10 to 20	–	–	–	–
CC(C)(C)c1ccc(C(=O)Nc2cncc(S(N)(=O)=O)c2)c(Oc2cccc(C(F)(F)F)n2)c1 [Compound 4]	> 20	< 2	10 to 20	–	–	–	–
NS(=O)(=O)c1cncc(NC(=O)c2ccc(C(F)(F)F)cc2Oc2ccc(C(F)(F)F)nc2)c1 [Compound 5, N-(5-Sulfamoylpyridin-3-yl)-4-(trifluoromethyl)-2-(6-(trifluoromethyl)pyridin-3-yloxy)benzamide]	> 20	2 to 10	> 20	–	–	–	–
CC(C)(C)c1ccc(C(=O)Nc2cncc(S(C)(=O)=O)c2)c(Oc2ccc(C(F)(F)F)nc2)c1 [Compound 6, 4-tert-Butyl-N-(5-(methylsulfonyl)pyridin-3-yl)-2-(6-(trifluoromethyl)pyridin-3-yloxy)benzamide]	> 20	2 to 10	10 to 20	–	–	–	–
CC(C)(C)c1ccc(C(=O)Nc2cncc(S(C)(=O)=O)c2)c(Oc2ccc(F)cc2Cl)c1 [Compound 7]	10 to 20	< 2	10 to 20	–	–	–	–
CS(=O)(=O)c1cncc(NC(=O)c2ccc(C(F)(F)F)cc2Oc2ccc(C(F)(F)F)nc2)c1 [Compound 8]	> 20	2 to 10	> 20	–	–	–	–
CC(C)(C)c1ccc(C(=O)Nc2cncc(S(C)(=O)=O)c2)c(Oc2cccc(C(F)(F)F)n2)c1 [Compound 9]	10 to 20	2 to 10	10 to 20	–	–	–	–
NC1=N[C@H](O)[C@H]2[C@H]3O[C@]4(O)O[C@@H]([C@@H](O)[C@@]2(N1)[C@@H]4O)[C@]3(O)CO [TTX, tetrodotoxin]	–	–	–	0.015	0.006	> 50	1
